The values below come from BindingDB's records for doi:10.1111/cbdd.12843 (Key Laboratory for Neurodegenerative Diseases of Ministry …, 2017).

The target in the assay is D(2) dopamine receptor (Homo sapiens, UniProt P14416). The assay is described as follows: Dopamine D2 Receptor Activity Assay. As to conditions: 37 °C. Here is the method:
D2 receptor/G protein α16a co-transfected HEK293 cells (from the Shanghai Institute of Materia Medica, Chinese Academy of Sciences) were seeded in 96-wellplates and incubated overnight at 37 °C. The media were then removed, and 40 μL of 10 μM Fluo-4/AM (a calcium fluorescent probe) (Invitrogen Corporation, Carlsbad, CA, USA) was added. The plates were then incubated for 40 min at 37 °C. After the supernatant was discarded and the cells were washed with calcium buffer, 50 μL of calcium buffer containing tested compounds at the dosage range from 0.01 nM to 10 μM was added, and the plates were incubated for 10 min. The fluorescence values at an emission wavelength of 525 nm and an excitation wavelength of 485 nm were detected by the FlexStation II microplate reader (Molecular Devices, San Francisco, CA, USA), starting 15 s after 25 μL of calcium buffer containing 50 nM dopamine (an agonist of the dopamine D2 receptor) (Sigma-Aldrich, Saint Louis, MO,USA) was automatically added by the instrument.

Chain of D(2) dopamine receptor (P14416 whole entry): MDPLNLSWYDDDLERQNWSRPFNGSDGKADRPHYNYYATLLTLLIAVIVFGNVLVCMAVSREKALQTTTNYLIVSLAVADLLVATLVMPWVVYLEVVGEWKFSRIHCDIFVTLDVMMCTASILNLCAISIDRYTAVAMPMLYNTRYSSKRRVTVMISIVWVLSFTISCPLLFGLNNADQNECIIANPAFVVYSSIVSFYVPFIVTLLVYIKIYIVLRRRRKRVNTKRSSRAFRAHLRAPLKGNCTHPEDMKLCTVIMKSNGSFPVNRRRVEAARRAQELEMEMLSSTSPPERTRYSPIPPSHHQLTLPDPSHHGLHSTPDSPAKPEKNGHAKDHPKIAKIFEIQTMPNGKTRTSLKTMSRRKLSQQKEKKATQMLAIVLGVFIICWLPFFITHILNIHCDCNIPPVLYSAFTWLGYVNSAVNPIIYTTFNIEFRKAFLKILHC

Consider `O=C1C[C@@H](c2ccc(F)cc2)Oc2cc(OCCCCN3CCC(c4noc5cc(F)ccc45)CC3)cc(O)c21` [5-Hydroxy-2-(4-fluorophenyl)-7-(4-(4-(6-fluorobenzo[d]isoxazol-3-yl)piperidin-1-yl)butoxy)chroman-4-one (7e)], for which inhibition was half-maximal at 87.7 nM (IC50). This counts as double-digit nanomolar.

Compound `COc1ccc([C@@H]2CC(=O)c3c(O)cc(OCCCCN4CCN(c5ccccc5OC)CC4)cc3O2)cc1` [5-Hydroxy-2-(4-methoxyphenyl)-7-(4-(4-(2-methoxyphenyl)piperazin-1-yl)butoxy)chroman-4-one (7a)] had an IC50 of 205 nM.

Compound `COc1ccc([C@@H]2CC(=O)c3c(O)cc(OCCCN4CCN(c5ccccc5OC)CC4)cc3O2)cc1` [5-Hydroxy-2-(4-methoxyphenyl)-7-(4-(4-(2-methoxyphenyl)piperazin-1-yl)propoxy)chroman-4-one (7f)] registered an IC50 of 220 nM.

For the compound `COc1ccc([C@@H]2CC(=O)c3c(O)cc(OCCCCN4CCC(c5noc6cc(F)ccc56)CC4)cc3O2)cc1` [5-Hydroxy-2-(4-methoxyphenyl)-7-(4-(4-(6-fluorobenzo[d]isoxazol-3-yl)piperidin-1-yl)butoxy)chroman-4-one (7d)], it took 51.3 nM to reach half-maximal inhibition (IC50).

As for `COc1ccc([C@@H]2CC(=O)c3c(O)cc(OCCCN4CCC(c5noc6cc(F)ccc56)CC4)cc3O2)cc1` [5-Hydroxy-2-(4-methoxyphenyl)-7-(4-(4-(6-fluorobenzo[d]isoxazol-3-yl)piperidin-1-yl)propoxy)chroman-4-one (7g)], the IC50 was determined as 116 nM.

As for `COc1ccccc1N1CCN(CCCCOc2cc(O)c3c(c2)O[C@H](c2ccc(C)cc2)CC3=O)CC1` [5-Hydroxy-2-(4-methylphenyl)-7-(4-(4-(2-methoxyphenyl)piperazin-1-yl)butoxy)chroman-4-one (7b)], the IC50 worked out at 346 nM.

Consider `COc1ccccc1N1CCN(CCCCOc2cc(O)c3c(c2)O[C@H](c2ccc(F)cc2)CC3=O)CC1` [5-Hydroxy-2-(fluorophenyl)-7-(4-(4-(2-methoxyphenyl)piperazin-1-yl)butoxy)chroman-4-one (7c)], for which the IC50 stood at 57.3 nM.
